Test results: patent publication US9290507B2, “B-RAF kinase inhibitors” (Boehringer Ingelheim International GmbH, priority 2010, dated 2016)

Molecular target: B-Raf (V600E)-kinase (Homo sapiens (Human), UniProt P15056, V600E)
Experiment: Kinase test B-Raf (V600E)
Format: biochemical
Conditions: 1 h preincubation, 250 μM ATP
Method: In a dilution series 10 μL/well of test substance solution are placed in a multiwell plate. The dilution series is selected so that generally a range of concentrations of 2 μM to 0.119 nM or 0.017 nM is covered. If necessary the initial concentration of 2 μM is changed to 50 μM, 10 μM or 0.4 μM or 0.2857 μM and further dilution is carried out accordingly. The final concentration of DMSO is 5%. 10 μL/well of the B-Raf (V600E)-kinase solution are pipetted in (containing 0.5 ng B-Raf (V600E)-kinase (e.g. from Upstate) in 20 mM Tris-HCl pH 7.5, 0.1 mM EDTA, 0.1 mM EGTA, 0.286 mM sodium orthovanadate, 10% glycerol, 1 mg/mL bovine serum albumin, 1 mM dithiothreitol) and the mixture is incubated for 1 h at RT under with shaking. The kinase reaction is started by the addition of 20 μL/well ATP solution [final concentration: 250 μM ATP, 30 mM Tris-HCl pH 7.5, 0.02% Brij, 0.2 mM sodium orthovanadate, 10 mM magnesium acetate, 0.1 mM EGTA, phosphatase cocktail (Sigma, #P2850, dilution recommended by the manufacturer)] and 10 μL/well MEK1 solution [containing 50 ng biotinylated MEK1 (prepared from purified MEK1 according to standard procedure, e.g. with EZ-Link Sulpho-NHS-LC-Biotin reagent, Pierce, #21335)] and carried out for 60 min at RT with constant shaking. The reaction is stopped by the addition of 12 μL/well of a 100 mM EDTA solution and incubation is continued for a further 5 min. 55 μL/well of the reaction solution are transferred into a streptavidin-coated plate (e.g. Streptawell HighBond, Roche, #11989685001) and shaken gently for 1 h at RT, in order to bind biotinylated MEK1 to the plate. After elimination of the liquid the plate is washed five times with 200 μL/well of 1×PBS and 100 μL/well solution of primary antibody plus europium-labelled secondary antibody [Anti Phospho-MEK (Ser217/221), Cell Signaling, #9121 and Eu-N1 labelled goat-anti-rabbit antibody, Perkin Elmer, #AD0105] is added, the primary antibody is diluted 1:2000 and the secondary antibody is diluted to 0.4-0.5 μg/mL in Delfia Assay Buffer (Perkin Elmer, #1244-111). After 1 h shaking at RT the solution is poured away and washed five times with 200 μL/well Delfia Wash Buffer (Perkin Elmer, #4010-0010/#1244-114). After the addition of 200 μL/well Enhancement Solution (Perkin Elmer, #4001-0010/#1244-105) the mixture is shaken for 10 min at RT and then measured in a Wallac Victor using the program “Delfia Time Resolved Fluorescence (Europium)”. IC50 values are obtained from these dosage-activity curves using a software program (GraphPadPrizm).

Sequence of B-Raf (V600E)-kinase (P15056 whole entry V600E): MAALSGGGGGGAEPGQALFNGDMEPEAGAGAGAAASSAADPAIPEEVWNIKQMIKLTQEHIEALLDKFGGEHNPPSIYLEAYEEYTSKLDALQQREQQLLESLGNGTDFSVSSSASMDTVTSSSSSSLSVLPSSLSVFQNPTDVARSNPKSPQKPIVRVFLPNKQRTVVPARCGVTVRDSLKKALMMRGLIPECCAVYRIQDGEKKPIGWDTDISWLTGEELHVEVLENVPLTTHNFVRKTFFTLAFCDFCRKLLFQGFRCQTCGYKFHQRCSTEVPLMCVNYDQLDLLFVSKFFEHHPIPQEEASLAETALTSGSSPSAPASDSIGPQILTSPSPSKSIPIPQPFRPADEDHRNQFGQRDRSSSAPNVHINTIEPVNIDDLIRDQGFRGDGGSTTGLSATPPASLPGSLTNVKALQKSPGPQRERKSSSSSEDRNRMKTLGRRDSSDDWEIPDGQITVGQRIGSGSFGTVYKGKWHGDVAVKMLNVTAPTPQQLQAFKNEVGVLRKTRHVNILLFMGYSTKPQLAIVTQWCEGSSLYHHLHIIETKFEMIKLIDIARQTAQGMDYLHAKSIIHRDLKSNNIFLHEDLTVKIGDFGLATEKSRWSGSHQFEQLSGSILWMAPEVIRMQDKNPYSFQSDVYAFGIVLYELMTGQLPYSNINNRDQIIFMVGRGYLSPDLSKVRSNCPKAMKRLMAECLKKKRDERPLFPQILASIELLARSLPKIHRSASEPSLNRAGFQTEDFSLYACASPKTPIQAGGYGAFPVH

Row | Structure (SMILES) | IC50
1 | Cc1ccc(C(=O)Nc2cc(C(C)(C)C)on2)cc1-n1cc(-c2cncc(N3CCCN(C(C)C)CC3)c2)nn1 [I-52] | 18 nM
2 | Cc1ccc(C(=O)Nc2cc(C(F)(F)F)ccn2)cc1-n1cc(-c2cncc(N3CCN(C(C)C)CC3)c2)nn1 [I-88] | 8 nM
3 | CCCCN1CCN(c2cncc(-c3cn(-c4cc(C(=O)Nc5cc(C(C)(C)C)on5)ccc4C)nn3)c2)CC1 [I-27] | 15 nM
4 | Cc1ccc(C(=O)Nc2cc(C(C)(C)C)on2)cc1-n1cc(-c2cncc(N3CCN(C(C)C)CC3)c2)nn1 [I-44] | 11 nM
5 | CCOCCN1CCN(c2cncc(-c3cn(-c4cc(C(=O)Nc5cc(C(C)(C)C)on5)ccc4C)nn3)c2)CC1 [I-49] | 29 nM
6 | Cc1ccc(C(=O)Nc2cc(C(C)(C)C)on2)cc1-n1cc(-c2cncc(NC3CCCC3)c2)nn1 [I-43] | 38 nM
7 | Cc1ccc(C(=O)Nc2cc(C(C)(C)C)on2)cc1-n1cc(-c2cncc(N3CCCC3)c2)nn1 [I-39] | 41 nM
8 | CCN(C)c1cncc(-c2cn(-c3cc(C(=O)Nc4cc(C(C)(C)C)on4)ccc3C)nn2)c1 [I-56] | 18 nM
9 | Cc1ccc(C(=O)Nc2cc(C(C)(C)C)on2)cc1-n1cc(-c2cncc(N3CC(N4CCN(C)CC4)C3)c2)nn1 [I-93] | 8 nM
10 | Cc1ccc(C(=O)Nc2cc(C(F)(F)F)ccn2)cc1-n1cc(-c2cncc(NC3CCN(C)C3)c2)nn1 (stereo not drawn) [I-63] | 6 nM
11 | Cc1ccc(C(=O)Nc2cc(C(F)(F)F)ccn2)cc1-n1cc(-c2cncc(N3CCC(N(C)C)C3)c2)nn1 (stereo not drawn) [I-75] | 7 nM
12 | COCCN(C)c1cncc(-c2cn(-c3cc(C(=O)Nc4cc(C(F)(F)F)ccn4)ccc3C)nn2)c1 [I-73] | 34 nM
13 | Cc1ccc(C(=O)Nc2cc(C(C)(C)C)on2)cc1-n1cc(-c2cncc(N3CCOCC3)c2)nn1 [I-47] | 10 nM
14 | Cc1ccc(C(=O)Nc2cc(C(F)(F)F)ccn2)cc1-n1cc(-c2cncc(N(C)C3CCN(C)C3)c2)nn1 (stereo not drawn) [I-78] | 4 nM
15 | Cc1ccc(C(=O)Nc2cc(C(C)(C)C)on2)cc1-n1cc(-c2cncc(N3C[C@@H](C)O[C@@H](C)C3)c2)nn1 [I-23] | 26 nM
16 | Cc1ccc(C(=O)Nc2cc(C(C)(C)C)on2)cc1-n1cc(-c2cncc(N3CCN(C4CCCC4)CC3)c2)nn1 [I-5] | 14 nM
17 | Cc1ccc(C(=O)Nc2cc(C(C)(C)C)on2)cc1-n1cc(-c2cncc(NCCF)c2)nn1 [I-22] | 16 nM
18 | Cc1ccc(C(=O)Nc2cc(C(C)(C)C)on2)cc1-n1cc(-c2cncc(N(C)C(C)C)c2)nn1 [I-35] | 45 nM
19 | Cc1ccc(C(=O)Nc2cc(C(C)(C)C)on2)cc1-n1cc(-c2cncc(NCC(F)F)c2)nn1 [I-54] | 51 nM
20 | Cc1ccc(C(=O)Nc2cc(C(C)(C)C)on2)cc1-n1cc(-c2cncc(N3CCCCC3)c2)nn1 [I-42] | 61 nM

Row | Structure (SMILES) | IC50
21 | Cc1ccc(C(=O)Nc2cc(C(F)(F)F)ccn2)cc1-n1cc(-c2cncc(N3CCCOCC3)c2)nn1 [I-67] | 24 nM
22 | Cc1ccc(C(=O)Nc2cc(C(C)(C)C)on2)cc1-n1cc(-c2cncc(N3CC(C)NC(C)C3)c2)nn1 (stereo not drawn) [I-32] | 9 nM
23 | Cc1ccc(C(=O)Nc2cc(C(C)(C)C)on2)cc1-n1cc(-c2cncc(N3CCN(CC(F)(F)F)CC3)c2)nn1 [I-31] | 98 nM
24 | Cc1ccc(C(=O)Nc2cc(C(F)(F)F)ccn2)cc1-n1cc(-c2cncc(N(C)C3CCOC3)c2)nn1 (stereo not drawn) [I-68] | 7 nM
25 | Cc1ccc(C(=O)Nc2cc(C(C)(C)C)on2)cc1-n1cc(-c2cncc(N(C)CCN(C)C)c2)nn1 [I-3] | 7 nM
26 | Cc1ccc(C(=O)Nc2cc(C(F)(F)F)ccn2)cc1-n1cc(-c2cncc(N3CCC(N(C)C)CC3)c2)nn1 [I-60] | 8 nM
27 | Cc1ccc(C(=O)Nc2cc(C(F)(F)F)ccn2)cc1-n1cc(-c2cncc(NC3CCOCC3)c2)nn1 [I-81] | 10 nM
28 | Cc1ccc(C(=O)Nc2cc(C(C)(C)C)on2)cc1-n1cc(-c2cncc(N3CCN(C)C(C)C3)c2)nn1 (stereo not drawn) [I-15] | 21 nM
29 | Cc1ccc(C(=O)Nc2cc(C(F)(F)F)ccn2)cc1-n1cc(-c2cncc(N(C)C3CCN(C)CC3)c2)nn1 [I-74] | 12 nM
30 | CCCN1CCN(c2cncc(-c3cn(-c4cc(C(=O)Nc5cc(C(C)(C)C)on5)ccc4C)nn3)c2)CC1 [I-41] | 8 nM
31 | Cc1ccc(C(=O)Nc2cc(C(C)(C)C)nn2C)cc1-n1cc(-c2cncc(N3CCOCC3)c2)nn1 [I-24] | 19 nM
32 | Cc1ccc(C(=O)Nc2cc(C(C)(C)C)ccn2)cc1-n1cc(-c2cncc(N3CCN(C)CC3)c2)nn1 [I-2] | 18 nM
33 | Cc1ccc(C(=O)Nc2cc(C(C)(C)C)on2)cc1-n1cc(-c2cncc(N3CCC3)c2)nn1 [I-19] | 11 nM
34 | Cc1ccc(C(=O)Nc2cc(C(C)(C)C)n[nH]2)cc1-n1cc(-c2cncc(N3CCOCC3)c2)nn1 [I-13] | 12 nM
35 | Cc1ccc(C(=O)Nc2cc(C(F)(F)F)ccn2)cc1-n1cc(-c2cncc(N(C)CCN3CCCC3)c2)nn1 [I-65] | 9 nM
36 | Cc1ccc(C(=O)Nc2cc(C(C)(C)C)on2)cc1-n1cc(-c2cncc(N3CCN(CC(C)C)CC3)c2)nn1 [I-50] | 13 nM
37 | Cc1ccc(C(=O)Nc2cc(C(F)(F)F)ccn2)cc1-n1cc(-c2cncc(N3C[C@@H]4C[C@H]3CN4)c2)nn1 [I-71] | 4 nM
38 | CNc1cncc(-c2cn(-c3cc(C(=O)Nc4cc(C(C)(C)C)on4)ccc3C)nn2)c1 [I-30] | 14 nM
39 | Cc1ccc(C(=O)Nc2cc(C(C)(C)C)on2)cc1-n1cc(-c2cncc(NC3CC3)c2)nn1 [I-28] | 10 nM

Continued, values first:

Row | IC50 | Structure (SMILES)
40 | 1 nM | Cc1ccc(NC(=O)c2ccc(C(C)(C)C)o2)cc1-n1cc(-c2cncc(N3CCNCC3)c2)nn1 [II-21]
41 | 10 nM | CCN1CCN(c2cncc(-c3cn(-c4cc(NC(=O)c5cc(C)n(C(C)(C)C)n5)ccc4C)nn3)c2)CC1 [II-35]
42 | 9 nM | CCCN1CCN(c2cncc(-c3cn(-c4cc(NC(=O)c5ccc(C(C)(C)C)s5)ccc4C)nn3)c2)CC1 [II-25]
43 | 36 nM | Cc1ccc(NC(=O)c2cc(CN(C)CCN(C)C)c(C(C)(C)C)o2)cc1-n1cc(-c2cncc(N3CCOCC3)c2)nn1 [II-43]
44 | 5 nM | Cc1ccc(NC(=O)c2ccc(C(C)(C)C)o2)cc1-n1cc(-c2cncc(N3CCN(CC(C)C)CC3)c2)nn1 [II-19]
45 | 7 nM | CCOCCN1CCN(c2cncc(-c3cn(-c4cc(NC(=O)c5ccc(C(C)(C)C)o5)ccc4C)nn3)c2)CC1 [II-22]
46 | 11 nM | Cc1ccc(NC(=O)c2cc(CNC(C)(C)C)c(C(C)(C)C)o2)cc1-n1cc(-c2cncc(N3CCOCC3)c2)nn1 [II-40]
47 | 14 nM | Cc1ccc(NC(=O)c2cc(CNC(C)C)c(C(C)(C)C)o2)cc1-n1cc(-c2cncc(N3CCOCC3)c2)nn1 [II-2]
48 | 11 nM | Cc1ccc(NC(=O)c2cc(CN3CCCC3)c(C(C)(C)C)o2)cc1-n1cc(-c2cncc(N3CCOCC3)c2)nn1 [II-10]
49 | 3 nM | CCN1CCN(c2cncc(-c3cn(-c4cc(NC(=O)c5ccc(C(C)(C)C)o5)ccc4C)nn3)c2)CC1 [II-14]
50 | 10 nM | CCOCCN1CCN(c2cncc(-c3cn(-c4cc(NC(=O)c5ccc(C(C)(C)C)s5)ccc4C)nn3)c2)CC1 [II-28]
51 | 3 nM | Cc1ccc(NC(=O)c2ccc(C(C)(C)C)o2)cc1-n1cc(-c2cncc(N3CCN(C(C)(C)C)CC3)c2)nn1 [II-3]
52 | 31 nM | Cc1ccc(NC(=O)c2cc(C)n(C(C)(C)C)n2)cc1-n1cc(-c2cncc(N3CCN(C4CC4)CC3)c2)nn1 [II-34]
53 | 10 nM | Cc1ccc(NC(=O)c2ccc(C(C)(C)C)s2)cc1-n1cc(-c2cncc(N3CCN(C(C)(C)C)CC3)c2)nn1 [II-29]
54 | 15 nM | Cc1ccc(NC(=O)c2cc(C(C)(C)C)oc2C)cc1-n1cc(-c2cncc(N3CCOCC3)c2)nn1 [II-12]
55 | 9 nM | Cc1ccc(NC(=O)c2cc(C(F)(F)F)ccn2)cc1-n1cc(-c2cncc(N3CCOCC3)c2)nn1 [II-1]
56 | 1 nM | COCCCN1CCN(c2cncc(-c3cn(-c4cc(NC(=O)c5ccc(C(C)(C)C)o5)ccc4C)nn3)c2)CC1 [II-17]
57 | 9 nM | Cc1ccc(NC(=O)c2ccc(C(C)(C)C)o2)cc1-n1cc(-c2cncc(N3CCOCC3)c2)nn1 [II-13]
58 | 2 nM | Cc1ccc(NC(=O)c2ccc(C(C)(C)C)o2)cc1-n1cc(-c2cncc(N3CCN(CC4CC4)CC3)c2)nn1 [II-16]
59 | 8 nM | Cc1ccc(NC(=O)c2cc(C(C)(C)C)on2)cc1-n1cc(-c2cncc(N3CCOCC3)c2)nn1 [II-5]
60 | 4 nM | Cc1ccc(NC(=O)c2cc(C(F)(F)F)ccn2)cc1-n1cc(-c2cncc(N3CCN(C)CC3)c2)nn1 [II-7]
